Key:
Format in all cases: physicochemical
[1] = Sympatec sizing of micronised glycopyrrolate batches, after micronisation and on storage; conditions: for Sympatec sizing d10 / Sympatec sizing d50 / Sympatec sizing d90: following micronisation
From the text: (§1) Batches of micronised glycopyrrolate were obtained and, following sealed storage for several weeks, the physical changes of the material from fine cohesive powders to solid agglomerates were observed.
(§2) The following section summarises the tests conducted on reported batches of glycopyrrolate received following micronisation: […]

[2] = Loss on drying and water activity of micronised batches
From the text: as §2

[3] = DVS (dynamic vapour sorption) moisture sorption analysis
From the text: 100% amorphous glycopyrrolate was obtained by lyophilisation.

[4] = Observation of bulk powder after sealed storage; conditions: sealed storage for several weeks
From the text: as §1, §2

[5] = Particle sizing of micronised and conditioned glycopyrrolate batches, Example 7; conditions: micronised drug powder
Experimental: (§3) The effect of conditioning on micronised glycopyrrolate was investigated. An initial batch of glycopyrrolate ‘A’ was micronised at 9.8 bar with feed rate of 0.2 kg/hour. This material was then conditioned on a tray at 25° C./60% RH, with or without agitation/turning. Each of these powders was sized by Sympatec. The powders were then formulated using the method outlined in Example 4, as 20 μg dose in 25 mg powder with 0.15% magnesium stearate and loaded into gelatin capsules. The fine particle fraction was assessed by firing the capsules from a Miat MonoHaler device into a multi stage liquid impinger, using the method defined in the European Pharmacopoeia 4th Edition 2002. The fine particle fraction was defined here as the mass fraction smaller than 5 μm relative to the nominal dose.
as §3, with “A second” for “The effect of conditioning on micronised glycopyrrolate was investigated. An initial”, “‘B’” for “‘A’”, “0.3” for “0.2”, “powder” for “material was then conditioned on a tray at 25° C./60% RH, with or without agitation/turning. Each of these powders”, “powder was” for “powders were”
as §3, with “A third” for “The effect of conditioning on micronised glycopyrrolate was investigated. An initial”, “glycopyrtolate ‘C’” for “glycopyrrolate ‘A’”, “0.4” for “0.2”
as §3, with “A fourth” for “The effect of conditioning on micronised glycopyrrolate was investigated. An initial”, “‘D’” for “‘A’”, “8.8” for “9.8”, “0.4” for “0.2”, “powder” for “material was then conditioned on a tray at 25° C./60% RH, with or without agitation/turning. Each of these powders”, “powder was” for “powders were”
as §3, with “A fifth” for “The effect of conditioning on micronised glycopyrrolate was investigated. An initial”, “‘E’” for “‘A’”, “7.8” for “9.8”, “0.4” for “0.2”
(§4) Batches A1, C1 and E1 were not conditioned. Batches A2, C2 and E2 were conditioned at 25° C./60% RH and batches A3, C3 and E3 were conditioned at 25° C./60% RH with turning.

[6] = MSLI test of formulations made from micronisation trial batches, Example 7; conditions: 20 μg dose in 25 mg powder, 0.15% magnesium stearate, gelatin capsules
Experimental: as §3
as §3, with “A second” for “The effect of conditioning on micronised glycopyrrolate was investigated. An initial”, “‘B’” for “‘A’”, “0.3” for “0.2”, “powder” for “material was then conditioned on a tray at 25° C./60% RH, with or without agitation/turning. Each of these powders”, “powder was” for “powders were”
as §3, with “A third” for “The effect of conditioning on micronised glycopyrrolate was investigated. An initial”, “glycopyrtolate ‘C’” for “glycopyrrolate ‘A’”, “0.4” for “0.2”
as §3, with “A fourth” for “The effect of conditioning on micronised glycopyrrolate was investigated. An initial”, “‘D’” for “‘A’”, “8.8” for “9.8”, “0.4” for “0.2”, “powder” for “material was then conditioned on a tray at 25° C./60% RH, with or without agitation/turning. Each of these powders”, “powder was” for “powders were”
as §3, with “A fifth” for “The effect of conditioning on micronised glycopyrrolate was investigated. An initial”, “‘E’” for “‘A’”, “7.8” for “9.8”, “0.4” for “0.2”
as §4

| Structure (SMILES) | Sympatec sizing d10 [1] [μm] | Sympatec sizing d50 [1] [μm] | Sympatec sizing d90 [1] [μm] | Loss on drying [2] [%] | DVS finding (crystalline or amorphous material) [3] | state of bulk powder on storage [4] | Water activity [2] [% RH] | d50 on repeated particle sizing ([1]; on storage) [μm] | D10 [5] [μm] | D50 [5] [μm] | D90 [5] [μm] | % FPD ([6]; T = 0) [%] | MMAD ([6]; T = 0) [μm] | % FPD ([6]; T = 2 wks) [%] | MMAD ([6]; T = 2 wks) [μm] | hygroscopicity ([3]; obtained by lyophilisation, confirmed by DVS at RH>0%) |
| --- | --- | --- | --- | --- | --- | --- | --- | --- | --- | --- | --- | --- | --- | --- | --- | --- |
| C[N+]1(C)CCC(OC(=O)C(O)(c2ccccc2)C2CCCC2)C1.[Br-] (stereo not drawn) [Batch A] | 0.7 | 1.8 | 3.6 | 0.7 | crystalline material | soft lumps | – | – | – | – | – | – | – | – | – | – |
| C[N+]1(C)CCC(OC(=O)C(O)(c2ccccc2)C2CCCC2)C1.[Br-] (stereo not drawn) [Batch B] | 1.0 | 2.4 | 4.8 | 0.6 | amorphous material was present | large hard lumps | 54 | – | – | – | – | – | – | – | – | – |
| C[N+]1(C)CCC(OC(=O)C(O)(c2ccccc2)C2CCCC2)C1.[Br-] (stereo not drawn) [Batch C] | 0.8 | 2.3 | 4.8 | 0.4 | amorphous material was present | large hard lumps | – | 51 | – | – | – | – | – | – | – | – |
| C[N+]1(C)CCC(OC(=O)C(O)(c2ccccc2)C2CCCC2)C1.[Br-] (stereo not drawn) [Formulation A1] | – | – | – | – | – | – | – | – | 0.81 | 1.95 | 3.68 | 34.7 | 2.8 | 30.5 | 3.2 | – |
| C[N+]1(C)CCC(OC(=O)C(O)(c2ccccc2)C2CCCC2)C1.[Br-] (stereo not drawn) [Formulation A2] | – | – | – | – | – | – | – | – | 1.22 | 3.89 | 10.02 | – | – | – | – | – |
| C[N+]1(C)CCC(OC(=O)C(O)(c2ccccc2)C2CCCC2)C1.[Br-] (stereo not drawn) [Formulation A3] | – | – | – | – | – | – | – | – | 1.24 | 4.03 | 9.78 | 34.5 | 2.8 | 31.5 | 3.1 | – |
| C[N+]1(C)CCC(OC(=O)C(O)(c2ccccc2)C2CCCC2)C1.[Br-] (stereo not drawn) [Formulation C1] | – | – | – | – | – | – | – | – | 0.95 | 2.41 | 4.83 | 39.9 | 3.9 | 35.5 | 4.0 | – |
| C[N+]1(C)CCC(OC(=O)C(O)(c2ccccc2)C2CCCC2)C1.[Br-] (stereo not drawn) [Formulation C2] | – | – | – | – | – | – | – | – | 1.24 | 3.76 | 7.84 | 39.2 | 3.3 | 34.0 | 3.6 | – |
| C[N+]1(C)CCC(OC(=O)C(O)(c2ccccc2)C2CCCC2)C1.[Br-] (stereo not drawn) [Formulation C3] | – | – | – | – | – | – | – | – | 1.24 | 3.97 | 8.23 | 39.9 | 3.2 | 37.9 | 3.4 | – |
| C[N+]1(C)CCC(OC(=O)C(O)(c2ccccc2)C2CCCC2)C1.[Br-] (stereo not drawn) [Formulation E1] | – | – | – | – | – | – | – | – | 1.01 | 2.47 | 4.88 | 39.9 | 3.3 | 33.3 | 3.4 | – |
| C[N+]1(C)CCC(OC(=O)C(O)(c2ccccc2)C2CCCC2)C1.[Br-] (stereo not drawn) [Formulation E2] | – | – | – | – | – | – | – | – | 1.28 | 3.61 | 7.08 | – | – | – | – | – |
| C[N+]1(C)CCC(OC(=O)C(O)(c2ccccc2)C2CCCC2)C1.[Br-] (stereo not drawn) [Formulation E3] | – | – | – | – | – | – | – | – | 1.23 | 3.79 | 7.85 | 38.7 | 3.2 | 32.7 | 3.7 | – |
| C[N+]1(C)CCC(OC(=O)C(O)(c2ccccc2)C2CCCC2)C1.[Br-] (stereo not drawn) [Remicronised Batch C] | 1.0 | 2.4 | 4.5 | 0.5 | – | only soft lumps | – | – | – | – | – | – | – | – | – | – |
| C[N+]1(C)CCC(OC(=O)C(O)(c2ccccc2)C2CCCC2)C1.[Br-] (stereo not drawn) [amorphous glycopyrrolate] | – | – | – | – | – | – | – | – | – | – | – | – | – | – | – | very hygroscopic |

From US20080063719A1, “Pharmaceutical Compositions” (Vectura Limited, priority 2004, published 2008)
